Laboratory results published in the supplement of paper PMC4862054.
“And” between values parts separate entries of the source, which are not always exact repeats. Equal values may be shown once.

Experiments:
Conditions in all cases: incubation time: 72 h
[1] = system: BT-549; test: normalised viability (% of control), CellTiter-Blue; higher = more viable cells (about 100 = DMSO control)
Outline: (§1)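 Plates were quality-checked by Z'-factor and normalised to vehicle (100) and a positive kill control (0). The underlying assay incubated breast cancer cell lines for 72 h on 384-well plates with compound, then added 2.5 µl CellTiter-Blue for 2 h at 37 °C and read at 560/590 nm. The value is normalised viability at a single listed concentration of the series.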

[2] = system: CAL-120; test: as above
Outline: as §1

[3] = system: CAL-148; test: as above
Outline: as §1

[4] = system: MDA-MB-231; test: as above
Outline: as §1

[5] = system: MDA-MB-453; test: as above
Outline: as §1

[6] = system: MDA-MB-468; test: as above
Outline: as §1

[7] = system: SK-BR-3; test: as above
Outline: as §1

[8] = system: BT-474; test: drug sensitivity score (DSS), CellTiter-Blue viability (DSS (AUC-based score)); higher = stronger viability inhibition; extreme values may be limits of the assay
Experimental: (§2)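 DSRT with the CellTiter-Blue (resazurin reduction) viability readout, fluorescence 560/590 nm, 72 h incubation. Plates were normalised to DMSO and benzethonium chloride controls. DSS is computed from the area under the fitted dose-response curve (5 or 9 concentrations).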

[9] = system: BT-549; test: as above
Experimental: as §2

[10] = system: CAL-120; test: as above
Experimental: as §2

[11] = system: CAL-148; test: as above
Experimental: as §2

[12] = system: CAL-51; test: as above
Experimental: as §2

[13] = system: CAL-85-1; test: as above
Experimental: as §2

[14] = system: DU-4475; test: as above
Experimental: as §2

[15] = system: HCC1143; test: as above
Experimental: as §2

[16] = system: HCC1599; test: as above
Experimental: as §2

[17] = system: HCC1937; test: as above
Experimental: as §2

[18] = system: HDQ-P1; test: as above
Experimental: as §2

[19] = system: Hs578T; test: as above
Experimental: as §2

[20] = system: MDA-MB-231; test: as above
Experimental: as §2

[21] = system: MDA-MB-436; test: as above
Experimental: as §2

[22] = system: MDA-MB-453; test: as above
Experimental: as §2

[23] = system: MDA-MB-468; test: as above
Experimental: as §2

[24] = system: MFM-223; test: as above
Experimental: as §2

[25] = system: SK-BR-3; test: as above
Experimental: as §2

Cc1nc(Nc2ncc(C(=O)Nc3c(C)cccc3Cl)s2)cc(N2CCN(CCO)CC2)n1 [Dasatinib]
Conditions	normalised viability
[1], 1 nM	102% and 95.4%
[1], 100 nM	62.5% and 51.1%
[1], 1000 nM	38.9% and 35.7%
[2], 1 nM	93.5% and 85.7%
[2], 100 nM	46% and 38.3%
[2], 1000 nM	26.6% and 22.4%
[3], 0.3 nM	97.9% and 80.8%
[3], 3 nM	110% and 85.8%
[3], 10 nM	98.1% and 88.5%
[4], 1 nM	87.5% and 81.5%
[4], 100 nM	53% and 40.2%
[4], 1000 nM	40.5% and 34%
[5], 0.3 nM	121% and 115%
[5], 3 nM	96.6% and 99.2%
[5], 10 nM	97.7% and 104%
[6], 1 nM	114% and 109%
[6], 100 nM	105% and 100%
[6], 1000 nM	94.6% and 90.4%
[7], 1 nM	109% and 92.9%
[7], 100 nM	112% and 98.6%

Conditions	drug sensitivity score
[8]	0
[9]	8.07 and 9.99
[10]	11.2 and 13.7
[11]	0
[12]	12.4 and 11.1
[13]	8.12 and 9
[14]	0
[15]	6.83 and 7.93
[16]	0
[17]	0
[18]	19.3 and 21.9
[19]	10.6 and 12.3
[20]	9.89 and 15.2
[21]	7.53 and 9.46
[22]	0
[23]	0
[24]	2.5 and 1.76
[25]	0

O=S(=O)(c1cccc2cnccc12)N1CCCNCC1 [Fasudil]
normalised viability [%]
Conditions	[1]	[2]	[3]	[4]	[5]	[6]	[7]
3 nM	–	–	81	–	112	–	–
10 nM	93.3	87.9	–	98.8	–	106	94.7
30 nM	–	–	90.1	–	116	–	–
100 nM	–	–	90.2	–	109	–	–
1000 nM	95.2	84.4	–	110	–	110	95.7
10000 nM	107	92	–	127	–	105	109

Conditions	drug sensitivity score
[8]	0
[9]	0
[10]	0
[11]	0
[12]	0
[13]	0
[14]	0
[15]	0
[16]	0
[17]	0
[18]	0
[19]	0
[20]	0
[21]	0
[22]	0.912
[23]	0
[24]	1.41
[25]	0

CS(=O)(=O)N1CCN(Cc2cc3nc(-c4cccc5[nH]ncc45)nc(N4CCOCC4)c3s2)CC1 [GDC-0941]
normalised viability [%]
Conditions	[1]	[2]	[3]	[4]	[5]	[6]	[7]
3 nM	–	–	82.4	–	109	–	–
10 nM	85.6	89.6	–	90.8	–	108	92.3
30 nM	–	–	85.8	–	85.1	–	–
100 nM	–	–	83.2	–	76.2	–	–
1000 nM	60.9	53.7	–	63.4	–	62.8	24.1
10000 nM	14.1	20.8	–	35.2	–	17	8.8

Conditions	drug sensitivity score
[8]	11.8
[9]	9.12
[10]	10.5
[11]	11.3
[12]	13.9
[13]	9.93
[14]	2.84
[15]	9.14
[16]	11.7
[17]	8.92
[18]	18.3
[19]	8.67
[20]	8.4
[21]	7.33
[22]	18.5
[23]	8.93
[24]	12.7
[25]	19.4

Cc1c(CN2CCN(C(=O)[C@H](C)O)CC2)sc2c(N3CCOCC3)nc(-c3cnc(N)nc3)nc12 [GDC-0980]
normalised viability [%]
Conditions	[1]	[2]	[3]	[4]	[5]	[6]	[7]
3 nM	–	–	100	–	116	–	–
10 nM	88.7	103	–	95.6	–	105	102
30 nM	–	–	94.5	–	77.8	–	–
100 nM	–	–	87.6	–	56.1	–	–
1000 nM	33.3	24.1	–	27.6	–	44.4	15.9
10000 nM	13.6	13.7	–	23.6	–	10.7	9.04

Conditions	drug sensitivity score
[8]	15.6
[9]	14.7
[10]	17.5
[11]	17.2
[12]	18.9
[13]	14.8
[14]	12.6
[15]	15.9
[16]	15.1
[17]	14.1
[18]	19.2
[19]	15.4
[20]	18.5
[21]	10.4
[22]	22.8
[23]	12.3
[24]	19.2
[25]	22.4
